Laboratory results as given in US9321760B2 (Merck Patent GmbH, priority 2011, dated 2016).

Target: P70S6K (T412E mutant) (Homo sapiens (Human), UniProt P23443, T412E)
Assay: P70S6K enzyme assay
Type: biochemical
Conditions: 3 nM P70S6K T412E mutant, 24 μM ATP, 1 μM FITC-AHA-AKRRRLSSLRA-OH substrate peptide, 90 min at 25° C.
Procedure, shortened: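 P70S6K T412E mutant (3 nM) with 24 μM ATP and 1 μM FITC-labelled S6-derived peptide in Hepes pH 7.5, MgCl2, DTT, Brij buffer; 90 min at 25° C, stopped with EDTA. Phosphorylated product and substrate peptides separated by microfluidic mobility shift; IC50 values derived.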

Chain of P70S6K (T412E mutant) (P23443 whole entry T412E): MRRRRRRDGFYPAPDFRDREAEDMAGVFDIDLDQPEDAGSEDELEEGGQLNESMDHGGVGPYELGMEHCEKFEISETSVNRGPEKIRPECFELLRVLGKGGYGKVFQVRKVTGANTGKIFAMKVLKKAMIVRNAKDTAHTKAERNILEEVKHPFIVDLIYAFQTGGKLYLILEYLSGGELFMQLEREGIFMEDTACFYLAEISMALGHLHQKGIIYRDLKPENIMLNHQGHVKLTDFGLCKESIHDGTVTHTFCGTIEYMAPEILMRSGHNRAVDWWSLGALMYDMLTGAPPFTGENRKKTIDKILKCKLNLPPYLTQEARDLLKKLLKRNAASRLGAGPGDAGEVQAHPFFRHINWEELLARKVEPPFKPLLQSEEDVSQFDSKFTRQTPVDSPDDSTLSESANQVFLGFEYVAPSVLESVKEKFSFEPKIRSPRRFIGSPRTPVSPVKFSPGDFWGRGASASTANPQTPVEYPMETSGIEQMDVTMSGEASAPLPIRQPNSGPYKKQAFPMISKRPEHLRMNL

| Compound | IC50 [nM] |
| --- | --- |
| Nc1ncnc(N2CCN(C(CN3CCC3)c3ccc(Cl)c(F)c3)CC2)c1-c1cn[nH]c1 (stereo not drawn) [Example 121, 6-{4-[2-Azetidin-1-yl-1-(4-chloro-3-fluoro-phenyl)-ethyl]-piperazin-1-yl}-5-(1H-pyrazol-4-yl)-pyrimidin-4-ylamine] | 900 |
| Nc1ncnc(N2CCN([C@H](CN3CCC3)c3cccc(F)c3)CC2)c1-c1cn[nH]c1 [Example 87, 6-{4-[(S)-2-Azetidin-1-yl-1-(3-fluoro-phenyl)-ethyl]-piperazin-1-yl}-5-(1H-pyrazol-4-yl)-pyrimidin-4-ylamine] | 8700 |
| Cc1cc(C(CN2CCC2)N2CCN(c3ncnc(N)c3-c3cn[nH]c3)CC2)ccc1Cl (stereo not drawn) [Example 109, 6-{4-[2-Azetidin-1-yl-1-(4-chloro-3-methyl-phenyl)-ethyl]-piperazin-1-yl}-5-(1H-pyrazol-4-yl)-pyrimidin-4-ylamine] | 1900 |
| COc1ccc([C@@H](CN2CCC2)N2CCN(c3ncnc(N)c3-c3ccc(F)cc3)CC2)cc1F [Example 105, 6-{4-[(S)-2-Azetidin-1-yl-1-(3-fluoro-4-methoxy-phenyl)-ethyl]-piperazin-1-yl}-5-(4-fluoro-phenyl)-pyrimidin-4-ylamine] | 640 |
| N#Cc1cccc([C@H](CN2CCC2)N2CCN(c3ncnc(N)c3-c3cn[nH]c3)CC2)c1 [Example 91, 3-((R)-1-{4-[6-Amino-5-(1H-pyrazol-4-yl)-pyrimidin-4-yl]-piperazin-1-yl}-2-azetidin-1-yl-ethyl)-benzonitrile] | 6300 |
| Nc1ncnc(N2CCC(N)(C(=O)N[C@@H](CCO)c3ccccc3)CC2)c1Cl [Example 228, 4-Amino-1-(6-amino-5-chloro-pyrimidin-4-yl)-piperidine-4-carboxylic acid ((S)-3-hydroxy-1-phenyl-propyl)-amide] | 2800 |
| Nc1ncnc(N2CCN(C(CN3CCC3)c3ccc(Cl)c(C(F)(F)F)c3)CC2)c1-c1cn[nH]c1 (stereo not drawn) [Example 132, 6-{4-[2-Azetidin-1-yl-1-(4-chloro-3-trifluoromethyl-phenyl)-ethyl]-piperazin-1-yl}-5-(1H-pyrazol-4-yl)-pyrimidin-4-ylamine] | 1400 |
| COc1ccc(C(CN2CCC2)N2CCN(c3ncnc(N)c3-c3cn[nH]c3)CC2)cc1F (stereo not drawn) [Example 95, 6-{4-[2-Azetidin-1-yl-1-(3-fluoro-4-methoxy-phenyl)-ethyl]-piperazin-1-yl}-5-(1H-pyrazol-4-yl)-pyrimidin-4-ylamine] | 3500 |
| Nc1ncnc(N2CCN(C(CN3CCC3)c3ccc(C(F)(F)F)cc3F)CC2)c1-c1cn[nH]c1 (stereo not drawn) [Example 120, 6-{4-[2-Azetidin-1-yl-1-(2-fluoro-4-trifluoromethyl-phenyl)-ethyl]-piperazin-1-yl}-5-(1H-pyrazol-4-yl)-pyrimidin-4-ylamine] | 1100 |
| Nc1ncnc(N2CCN(C(CN3CCC3)c3ccc(F)c(OC(F)(F)F)c3)CC2)c1-c1cn[nH]c1 (stereo not drawn) [Example 114, 6-{4-[2-Azetidin-1-yl-1-(4-fluoro-3-trifluoromethoxy-phenyl)-ethyl]-piperazin-1-yl}-5-(1H-pyrazol-4-yl)-pyrimidin-4-ylamine] | 3300 |
| Nc1ncnc(N2CCN([C@@H](CN3CCC3)c3ccc4c(c3)OCCO4)CC2)c1-c1cn[nH]c1 [Example 107, 6-{4-[(R)-2-Azetidin-1-yl-1-(2,3-dihydro-benzo[1,4]dioxin-6-yl)-ethyl]-piperazin-1-yl}-5-(1H-pyrazol-4-yl)-pyrimidin-4-ylamine] | 5200 |
| NC(=O)C[C@H](NC(=O)C1(N)CCN(c2ncnc(N)c2Cl)CC1)c1ccc(Cl)cc1 [Example 217, 4-Amino-1-(6-amino-5-chloro-pyrimidin-4-yl)-piperidine-4-carboxylic acid [(S)-2-carbamoyl-1-(4-chloro-phenyl)ethyl]-amide] | 820 |
| N#Cc1ccc(C(CN2CCC2)N2CCN(c3ncnc(N)c3-c3cn[nH]c3)CC2)cc1 (single isomer, unassigned) [Example 85, 4-(1-{4-[6-Amino-5-(1H-pyrazol-4-yl)-pyrimidin-4-yl]-piperazin-1-yl}-2-azetidin-1-yl-ethyl)-benzonitrile] | 2800 |
| Cn1ccnc1C(c1ccccc1)N1CCN(c2ncnc(N)c2Br)CC1 (stereo not drawn) [Example 29, 5-Bromo-6-{4-[(1-methyl-1H-imidazol-2-yl)-phenyl-methyl]-piperazin-1-yl}-pyrimidin-4-ylamine] | > 1000 |

Stronger by IC50, values ahead:

| IC50 [nM] | Compound |
| --- | --- |
| 290 | Nc1ncnc(N2CCN(C(CN3CCC3)c3ccc(-n4ccnc4)cc3)CC2)c1-c1ccc(F)cc1 (stereo not drawn) [Example 116, 6-{4-[2-Azetidin-1-yl-1-(4-imidazol-1-yl-phenyl)-ethyl]-piperazin-1-yl}-5-(4-fluoro-phenyl)-pyrimidin-4-ylamine] |
| 280 | Cc1ccc([C@H](CCO)NC(=O)C2(N)CCN(c3ncnc(N)c3C#N)CC2)cc1 [Example 227, 4-Amino-1-(6-amino-5-cyano-pyrimidin-4-yl)-piperidine-4-carboxylic acid ((S)-3-hydroxy-1-p-tolyl-propyl)-amide] |
| 220 | COc1ccc(C(C#N)N2CCN(c3ncnc(N)c3-c3ccc(F)cc3)CC2)cn1 (stereo not drawn) [Example 182, 2-(4-(6-amino-5-(4-fluorophenyl)pyrimidin-4-yl)piperazin-1-yl)-2-(6-methoxypyridin-3-yl)acetonitrile] |
| 190 | CCc1c(N)ncnc1N1CCN([C@@H](CN)c2ccc(Cl)cc2)CC1 [Example 180, 6-{4-[(R)-2-Amino-1-(4-chloro-phenyl)-ethyl]-piperazin-1-yl}-5-ethyl-pyrimidin-4-ylamine] |
| 140 | N#Cc1c(N)ncnc1N1CCC(N)(C(=O)N[C@@H](CC(N)=O)c2ccc(Cl)cc2)CC1 [Example 221, 4-Amino-1-(6-amino-5-cyano-pyrimidin-4-yl)-piperidine-4-carboxylic acid [(S)-2-carbamoyl-1-(4-chloro-phenyl)-ethyl]-amide] |
| 98 | Cn1ccc(-c2c(N)ncnc2N2CCN(C(CN)c3ccc(C(F)(F)F)cc3)CC2)n1 (stereo not drawn) [Example 43, 6-{4-[2-Amino-1-(4-trifluoromethyl-phenyl)-ethyl]-piperazin-1-yl}-5-(1-methyl-1H-pyrazol-3-yl)-pyrimidin-4-ylamine] |
| 78 | CC[C@H](NC(=O)C1(N)CCN(c2ncnc(N)c2-c2cn[nH]c2)CC1)c1ccc(Cl)cc1 [Example 225, 4-Amino-1-[6-amino-5-(1H-pyrazol-4-yl)-pyrimidin-4-yl]-piperidine-4-carboxylic acid [(S)-1-(4-chloro-phenyl)-propyl]-amide] |
| 74 | Nc1ncnc(N2CCN(Cc3cc(Cl)c(Cl)cc3O)CC2)c1-c1ccc(F)cc1 [Example 60, 2-((4-(6-amino-5-(4-fluorophenyl)pyrimidin-4-yl)piperazin-1-yl)methyl)-4,5-dichlorophenol] |
| 68 | N#CC(c1ccc(Cl)cc1)N1CCN(c2ncnc(N)c2-c2ccc(F)cc2)CC1 (stereo not drawn) [Example 162, {4-[6-Amino-5-(4-fluoro-phenyl)-pyrimidin-4-yl]-piperazin-1-yl}-(4-chloro-phenyl)-acetonitrile] |
| 48.5 | NCC(c1ccc(C(F)(F)F)cc1)N1CCN(c2ncnc(N)c2OCC(F)(F)F)CC1 (stereo not drawn) [Example 33, 6-(4-(2-amino-1-(4-(trifluoromethyl)phenyl)ethyl)piperazin-1-yl)-5-(2,2,2-trifluoroethoxy)pyrimidin-4-amine] |
| 45 | CN(C)CC(c1ccc(C(F)(F)F)cc1)N1CCN(c2ncnc(N)c2-c2ccc(C(=O)O)cc2)CC1 (stereo not drawn) [Example 26, 4-(4-amino-6-(4-(2-(dimethylamino)-1-(4-(trifluoromethyl)phenyl)ethyl)piperazin-1-yl)pyrimidin-5-yl)benzoic acid] |
| 33 | CC(c1ccc(Cl)cc1O)N1CCN(c2ncnc(N)c2-c2ccc(F)cc2)CC1 (stereo not drawn) [Example 61, 2-(1-(4-(6-amino-5-(4-fluorophenyl)pyrimidin-4-yl)piperazin-1-yl)ethyl)-5-chlorophenol] |
| 31 | NCC(c1cccnc1)N1CCN(c2ncnc(N)c2-c2ccc(F)cc2)CC1 (stereo not drawn) [Example 193, 6-[4-(2-Amino-1-pyridin-3-yl-ethyl)-piperazin-1-yl]-5-(4-fluoro-phenyl)-pyrimidin-4-ylamine] |
| 14 | Cn1cc(-c2c(N)ncnc2N2CCN([C@H](CN)c3ccc(C(F)(F)F)cc3)CC2)cn1 [Example 41, 6-{4-[(S)-2-Amino-1-(4-trifluoromethyl-phenyl)-ethyl]-piperazin-1-yl}-5-(1-methyl-1H-pyrazol-4-yl)-pyrimidin-4-ylamine] |
| 11 | N#Cc1ccc(-c2c(N)ncnc2N2CCC(N)(CNC(=O)c3ccc(F)cc3F)C2)cc1 (stereo not drawn) [Example 199, N-{3-Amino-1-[6-amino-5-(4-cyano-phenyl)-pyrimidin-4-yl]-pyrrolidin-3-ylmethyl}-2,4-difluoro-benzamide] |
| 6 | NCC(c1ccc(Cl)c(Cl)c1)N1CCN(c2ncnc(N)c2-c2ccc(F)cc2)CC1 (stereo not drawn) [Example 157, 6-{4-[2-Amino-1-(3,4-dichloro-phenyl)-ethyl]-piperazin-1-yl}-5-(4-fluoro-phenyl)-pyrimidin-4-ylamine] |
| 4.9 | CN(C)C[C@H](c1ccc(C(F)(F)F)cc1)N1CCN(c2ncnc(N)c2-c2ccc(F)cc2)CC1 [Example 16, (S)-6-(4-(2-(dimethylamino)-1-(4-(trifluoromethyl)phenyl)ethyl)piperazin-1-yl)-5-(4-fluorophenyl)pyrimidin-4-amine] |
| 3.2 | NC[C@H](c1ccc(C(F)(F)F)cc1)C1CCN(c2ncnc(N)c2-c2ccc(F)cc2)CC1 [Example 53, 6-{4-[(S)-2-Amino-1-(4-trifluoromethyl-phenyl)-ethyl]-piperidin-1-yl}-5-(4-fluoro-phenyl)-pyrimidin-4-ylamine] |
| 2.2 | NCC(c1ccc(C(F)(F)F)cc1)N1CCN(c2ncnc(N)c2-c2ccc(F)cc2)CC1 (stereo not drawn) [Example 2, 6-{4-[2-Amino-1-(4-trifluoromethyl-phenyl)-ethyl]-piperazin-1-yl}-5-(4-fluoro-phenyl)-pyrimidin-4-ylamine] |
